Laboratory results: patent US10526385B2, “YAP protein inhibiting polypeptide and application thereof” (BAO KANG BIOMEDICAL HEALTHCARE INC, priority 2013, dated 2020)
Like-named read-outs stand apart in the source and are kept apart here. Where a SMILES comes first, the peptide text is derived from it. Bridges are numbered along the chain shown (N, C = ends). [ ]: non-standard residue; d: D form. Phe(3-Cl) = N[C@@H](Cc1cccc(Cl)c1)C(=O)O; hCys = N[C@@H](CCS)C(=O)O; Nle = CCCC[C@H](N)C(=O)O

Tests used:
[1] = Cell penetration or infiltration of the polypeptides; type: cell-based
Description: In this example, the sequence was modified based on SEQ ID NO.: 1. Some preferred modification based on the tested results included: adding a disulfide linkage within the peptide, or adding a cell-penetrating element.

[2] = Stability in plasma (percentage of residual peptides); details: for Stability* (>24 h): plasma
Method: For the YAP inhibitory polypeptides modified in above (a) and (b), the IC50 values for TEAD binding and the stability in plasma were measured.

[3] = test system: hepatoma cell line BEL7404; type: cell-based; details: Table 8; at a concentration of 1% in cell cultivating for 72 h; unit inferred; read-out: IC50 BEL7404
Method: (§1) The hepatoma cell line BEL7404 (purchased from The Chinese Academy of Sciences cell bank) was a cell line with high expression of YAP protein; HCCLM3 (purchased from The Chinese Academy of Sciences cell bank) was a cell line with low expression of YAP protein. The hepatoma cell lines (BEL7404 or HCCLM3) were inoculated into a 96-well plate at the concentration of 2000 cells/well, and incubated overnight in RPMI1640 containing 1% bovine serum at 37° C. The hepatoma cell lines were treated with polypeptides having different concentrations at 37° C. for 72 h.
(§2) Moreover, IC50 values of the cells in 1.1 were determined using CCK-8 kit.
(§3) The polypeptide represented by SEQ ID NO.:1 was further modified. The IC50 values of the polypeptides at a concentration of 1% in cell cultivating for 72 h were measured.

[4] = test system: hepatoma cell line HCCLM3; type: cell-based; details: Table 8; at a concentration of 1% in cell cultivating for 72 h; unit inferred; read-out: IC50 HCCLM3
Method: as §1, §2, §3

[5] = Table 2, percentage of residual peptides after >24 h

IC50 [3] | IC50 [4] | SMILES | also measured
 |  | CSCC[C@H](NC(=O)[C@@H]1CCCN1C(=O)[C@@H](N)C(C)C)C(=O)N[C@H]1CCSSC[C@@H](C(=O)N[C@@H](CCCCN)C(=O)N2CCC[C@H]2C(=O)N2CCC[C@H]2C(=O)N[C@@H](CCC(=O)O)C(=O)O)NC(=O)[C@H](Cc2ccccc2)NC(=O)[C@H](CO)NC(=O)[C@H](CC(=O)O)NC(=O)[C@@H]2CCCN2C(=O)[C@H](CC(C)C)NC(=O)[C@H](CCCCN)NC(=O)[C@H](CCCNC(=N)N)NC(=O)[C@H](CC(C)C)NC1=O [Peptide 2] | Percentage of Cell penetration or infiltration (%) ([1]; Table 2, penetration of the peptide with RRMKWKK taken as 100%): 8%; Stability* (>24 h) [2, 5]: 13%; Stability* (>24 h) ([2]; Table 3, >24 h): 7%
 |  | CSCC[C@H](NC(=O)[C@@H]1CCCN1C(=O)[C@@H](N)C(C)C)C(=O)N[C@@H](CCCNC(=N)N)C(=O)N[C@@H](CC(C)C)C(=O)N[C@@H](CCCNC(=N)N)C(=O)N[C@@H](CCCCN)C(=O)N[C@@H](CC(C)C)C(=O)N1CCC[C@H]1C(=O)N[C@@H](CC(=O)O)C(=O)N[C@@H](CO)C(=O)N[C@@H](Cc1ccccc1)C(=O)N[C@@H](Cc1ccccc1)C(=O)N[C@@H](CCCCN)C(=O)N1CCC[C@H]1C(=O)N1CCC[C@H]1C(=O)N[C@@H](CCC(=O)O)C(=O)O [SEQ ID NO.: 1] | Percentage of Cell penetration or infiltration (%) [1]: <10%; uptake by cells [1]: difficult for effective uptake by cells; Stability* (>24 h) [2, 5]: 0%; stability ([2]; in words): low stability
60.2 ± 15.2 µM | < 1000 µM | CCCC[C@@H]1NC(=O)[C@H](CCCCN)NC(=O)[C@H](CCCCN)NC(=O)[C@H](CC(C)C)NC(=O)[C@@H](NC(=O)[C@H](Cc2cccc(Cl)c2)NC(=O)[C@@H]2CCCN2C(=O)[C@@H](N)C(C)C)CCSSC[C@@H](C(=O)N[C@@H](CCCCN)C(=O)N2CCC[C@H]2C(=O)N2CCC[C@H]2C(=O)N[C@@H](CCCNC(=N)N)C(=O)N[C@@H](CCCNC(=N)N)C(=O)N[C@@H](CCSC)C(=O)N[C@@H](CCCCN)C(=O)N[C@@H](Cc2c[nH]c3ccccc23)C(=O)N[C@@H](CCCCN)C(=O)N[C@@H](CCCCN)C(=O)O)NC(=O)[C@H](Cc2ccccc2)NC(=O)[C@H](CO)NC(=O)[C@H](CC(=O)O)NC(=O)[C@@H]2CCCN2C1=O [compound 27] (H-VP[Phe(3-Cl)][hCys]LKK[Nle]PDSFCKPPRRMKWKK-OH; disulfide 4-13) | 
55.4 ± 6.3 µM | 198 ± 19.6 µM | CCCC[C@@H]1NC(=O)[C@@H](NC(=O)[C@H](Cc2cccc(Cl)c2)NC(=O)[C@@H]2CCCN2C(=O)[C@@H](N)C(C)C)CCSSC[C@@H](C(=O)N[C@@H](CCCCN)C(=O)N2CCC[C@H]2C(=O)N2CCC[C@H]2C(=O)N[C@@H](CCCNC(=N)N)C(=O)N[C@@H](CCCNC(=N)N)C(=O)N[C@@H](CCSC)C(=O)N[C@@H](CCCCN)C(=O)N[C@@H](Cc2c[nH]c3ccccc23)C(=O)N[C@@H](CCCCN)C(=O)N[C@@H](CCCCN)C(=O)O)NC(=O)[C@H](Cc2ccccc2)NC(=O)[C@H](CO)NC(=O)[C@H](CC(=O)O)NC(=O)[C@@H]2CCCN2C(=O)[C@H](CCCC)NC(=O)[C@H](CCCCN)NC(=O)[C@H](CCCCN)NC1=O [compound 28] (H-VP[Phe(3-Cl)][hCys][Nle]KK[Nle]PDSFCKPPRRMKWKK-OH; disulfide 4-13) | 
65.6 ± 8.9 µM | 254 ± 12.3 µM | CCCC[C@@H]1NC(=O)[C@H](CCCCN)NC(=O)[C@H](CCCCN)NC(=O)[C@H](CC(C)C)NC(=O)[C@@H](NC(=O)[C@H](Cc2cccc(Cl)c2)NC(=O)[C@@H]2CCCN2C(=O)[C@@H](N)C(C)C)CCSSC[C@@H](C(=O)N[C@@H](CCCCN)C(=O)N2CCC[C@H]2C(=O)N2CCC[C@H]2C(=O)N[C@@H](CCCNC(=N)N)C(=O)N[C@@H](CCCNC(=N)N)C(=O)N[C@@H](CCSC)C(=O)N[C@@H](CCCCN)C(=O)N[C@@H](Cc2c[nH]c3ccccc23)C(=O)N[C@@H](CCCCN)C(=O)N[C@@H](CCCCN)C(=O)O)NC(=O)[C@H](Cc2ccccc2)NC(=O)[C@H](CO)NC(=O)[C@H](CCC(=O)O)NC(=O)[C@@H]2CCCN2C1=O [compound 29] (H-VP[Phe(3-Cl)][hCys]LKK[Nle]PESFCKPPRRMKWKK-OH; disulfide 4-13) | 
28.2 ± 1.8 µM | 142 ± 9.4 µM | CCCC[C@@H]1NC(=O)[C@H](CCCCN)NC(=O)[C@H](CCCCN)NC(=O)[C@H](CC(C)C)NC(=O)[C@@H](NC(=O)[C@H](Cc2cccc(Cl)c2)NC(=O)[C@@H]2CCCN2C(=O)[C@@H](N)C(C)C)CSSCC[C@@H](C(=O)N[C@@H](CCCCN)C(=O)N2CCC[C@H]2C(=O)N2CCC[C@H]2C(=O)N[C@@H](CCCNC(=N)N)C(=O)N[C@@H](CCCNC(=N)N)C(=O)N[C@@H](CCSC)C(=O)N[C@@H](CCCCN)C(=O)N[C@@H](Cc2c[nH]c3ccccc23)C(=O)N[C@@H](CCCCN)C(=O)N[C@@H](CCCCN)C(=O)O)NC(=O)[C@H](Cc2ccccc2)NC(=O)[C@H](CO)NC(=O)[C@H](C)NC(=O)[C@@H]2CCCN2C1=O [compound 30] (H-VP[Phe(3-Cl)]CLKK[Nle]PASF[hCys]KPPRRMKWKK-OH; disulfide 4-13) | 
16.2 ± 1.9 µM | 107 ± 23.2 µM | CCCC[C@@H]1NC(=O)[C@H](CCCCN)NC(=O)[C@H](CCCCN)NC(=O)[C@H](CC(C)C)NC(=O)[C@H](Cc2cccc(Cl)c2)NC(=O)[C@@H](NC(=O)[C@@H]2CCCN2C(=O)[C@@H](N)C(C)C)CCSSC[C@@H](C(=O)N[C@@H](Cc2ccccc2)C(=O)N[C@@H](CCCCN)C(=O)N2CCC[C@H]2C(=O)N2CCC[C@H]2C(=O)N[C@@H](CCCNC(=N)N)C(=O)N[C@@H](CCCNC(=N)N)C(=O)N[C@@H](CCSC)C(=O)N[C@@H](CCCCN)C(=O)N[C@@H](Cc2c[nH]c3ccccc23)C(=O)N[C@@H](CCCCN)C(=O)N[C@@H](CCCCN)C(=O)O)NC(=O)[C@H](CO)NC(=O)[C@H](C)NC(=O)[C@@H]2CCCN2C1=O [compound 31] (H-VP[hCys][Phe(3-Cl)]LKK[Nle]PASCFKPPRRMKWKK-OH; disulfide 3-12) | 
10.8 ± 2.1 µM | 81.1 ± 13.1 µM | CCCC[C@@H]1NC(=O)[C@@H](NC(=O)[C@H](CCCCN)NC(=O)[C@H](CCCCN)NC(=O)[C@H](CC(C)C)NC(=O)[C@H](Cc2cccc(Cl)c2)NC(=O)[C@@H]2CCCN2C(=O)[C@@H](N)C(C)C)CCSSC[C@@H](C(=O)N[C@@H](CCCNC(=N)N)C(=O)N[C@@H](CCCNC(=N)N)C(=O)N[C@@H](CCSC)C(=O)N[C@@H](CCCCN)C(=O)N[C@@H](Cc2c[nH]c3ccccc23)C(=O)N[C@@H](CCCCN)C(=O)N[C@@H](CCCCN)C(=O)O)NC(=O)[C@@H]2CCCN2C(=O)[C@@H]2CCCN2C(=O)[C@H](CCCCN)NC(=O)[C@H](Cc2ccccc2)NC(=O)[C@H](CO)NC(=O)[C@H](C)NC(=O)[C@@H]2CCCN2C1=O [compound 33] (H-VP[Phe(3-Cl)]LKK[hCys][Nle]PASFKPPCRRMKWKK-OH; disulfide 7-16) | 
